This note sets out measurements from patent publication EP1718648B1, “TRICYCLIC IMIDAZOPYRIDINES AND INTERMEDIATES FOR THE SYNTHESIS THEREOF” (Nycomed GmbH, priority 2004, dated 2005).

SMILES strings stand for the structures. Some results are limits rather than exact numbers.

The assay concerns pentagastrin-stimulated acid secretion of the perfused rat stomach. The assay can be described thus: Testing of the secretion-inhibiting action on the perfused rat stomach. Particulars: Dose 1.0 µmol/kg i.d. (intraduodenal), in vivo; anesthetized CD rat, female; pentagastrin 1 µg/kg i.v. continuous infusion. An excerpt: The compounds of the formula 2 according to the invention investigated in the model mentioned below have been provided with letters which correspond to the letters of these compounds in the examples.
In Table A which follows, the influence of the compounds of the formula 2 according to the invention on the pentagastrin-stimulated acid secretion of the perfused rat stomach after intraduodenal administration in vivo is shown. Table A
The abdomen of anesthetized rats (CD rat, female, 200-250 g; 1.5 g/kg i.m. urethane) was opened after tracheotomy by a median upper abdominal incision and a PVC catheter was fixed transorally in the esophagus and another via the pylorus such that the ends of the tubes just projected into the gastric lumen. The catheter leading from the pylorus led outward into the right abdominal wall through a side opening.
After thorough rinsing (about 50-100 ml), warm (37°C) physiological NaCl solution was continuously passed through the stomach (0.5 ml/min, pH 6.8-6.9; Braun-Unita I). The pH (pH meter 632, glass electrode EA 147; φ = 5 mm, Metrohm) and, by titration with a freshly prepared 0.01 N NaOH solution to pH 7 (Dosimat 665 Metrohm), the secreted HCl were determined in the effluent in each case collected at an interval of 15 minutes.
The gastric secretion was stimulated by continuous infusion of 1 µg/kg (=1.65 ml/h) of i.v. pentagastrin (left femoral vein) about 30 min after the end of the operation (i.e. after determination of 2 preliminary fractions). The substances to be tested were administered intraduodenally in a 2.5 ml/kg liquid volume 60 min after the start of the continuous pentagastrin infusion.
The body temperature of the animals was kept at a constant 37.8-38°C by infrared irradiation and heat pads (automatic, stepless control by means of a rectal temperature sensor).
For the compound `CNC(=O)c1cn2c(C)c(C)nc2c2c1CCC(c1ccccc1)N2` (stereo not drawn) [c, 2,3-Dimethyl-8-phenyl-6,7,8,9-tetrahydro-1,3a,9-triaza-cyclopenta[a]naphthalene-5-carboxylic Acid Methylamide], the “Inhibition of acid secretion (%)” value is recorded as > 50%.

For `Cc1nc2c3c(c(C(=O)N(C)C)cn2c1C)CCC(c1ccccc1)N3` (stereo not drawn) [e, 2,3-Dimethyl-8-phenyl-6,7,8,9-tetrahydro-1,3a,9-triaza-cyclopenta[a]naphthalene-5-carboxylic Acid Dimethylamide], the “Inhibition of acid secretion (%)” value was > 50%.

As for `Cc1nc2c3c(c(C(N)=O)cn2c1C)CCC(c1ccccc1)N3` (stereo not drawn) [f, 2,3-Dimethyl-8-phenyl-6,7,8,9-tetrahydro-1,3a,9-triaza-cyclopenta[a]naphthalene-5-carboxylic Acid Amide], the “Inhibition of acid secretion (%)” value is reported as > 50%.

With `Cc1nc2c3c(c(C(=O)N4CCCC4)cn2c1C)CCC(c1ccccc1)N3` (stereo not drawn) [h, 1-(2,3-Dimethyl-8-phenyl-6,7,8,9-tetrahydro-1,3a,9-triaza-cyclopenta[a]naphthalen-5-yl)-1-pyrrolidin-1-yl-methanone], the “Inhibition of acid secretion (%)” value is recorded as > 50%.

Turning to `Cc1nc2c3c(c(C(=O)N(C)C)cn2c1C)CC[C@@H](c1ccccc1)N3` [j, (8S)-2,3-Dimethyl-8-phenyl-6,7,8,9-tetrahydro-1,3a,9-triaza-cyclopenta[a]naphthalene-5-carboxylic Acid Dimethylamide], the “Inhibition of acid secretion (%)” value is > 50%.

Consider `Cc1nc2c3c(c(C(=O)N(C)C)cn2c1C)CC[C@H](c1ccccc1)N3` [k, (8R)-2,3-Dimethyl-8-phenyl-6,7,8,9-tetrahydro-1,3a,9-triaza-cyclopenta[a]naphthalene-5-carboxylic Acid Dimethylamide], for which the “Inhibition of acid secretion (%)” value is on record as < 50%.

Regarding `CNC(=O)c1cn2c(C)c(C)nc2c2c1CC[C@H](c1ccccc1)N2` [l, (8R)-2,3-Dimethyl-8-phenyl-6,7,8,9-tetrahydro-1,3a,9-triaza-cyclopenta[a]naphthalene-5-carboxylic Acid Methylamide], the “Inhibition of acid secretion (%)” value was < 50%.

Turning to `CNC(=O)c1cn2c(C)c(C)nc2c2c1CC[C@@H](c1ccccc1)N2` [m, (8S)-2,3-Dimethyl-8-phenyl-6,7,8,9-tetrahydro-1,3a,9-triaza-cyclopenta[a]naphthalene-5-carboxylic Acid Methylamide], the “Inhibition of acid secretion (%)” value is on record as > 50%.

Turning to `Cc1nc2c3c(c(C(=O)NC4CC4)cn2c1C)CC[C@H](c1ccccc1)N3` [n, (8R)-2,3-Dimethyl-8-phenyl-6,7,8,9-tetrahydro-1,3a,9-triaza-cyclopenta[a]naphthalene-5-carboxylic Acid Cyclopropylamide], the “Inhibition of acid secretion (%)” value is given as < 50%.

With `Cc1nc2c3c(c(C(=O)NC4CC4)cn2c1C)CC[C@@H](c1ccccc1)N3` [o, (8S)-2,3-Dimethyl-8-phenyl-6,7,8,9-tetrahydro-1,3a,9-triaza-cyclopenta[a]naphthalene-5-carboxylic Acid Cyclopropylamide], the “Inhibition of acid secretion (%)” value is listed as > 50%.

On to `Cc1nc2c3c(c(C(N)=O)cn2c1C)CC[C@H](c1ccccc1)N3` [p, (8R)-2,3-Dimethyl-8-phenyl-6,7,8,9-tetrahydro-1,3a,9-triaza-cyclopenta[a]naphthalene-5-carboxylic Acid Amide], for which the “Inhibition of acid secretion (%)” value is listed as < 50%.

In the case of `Cc1nc2c3c(c(C(N)=O)cn2c1C)CC[C@@H](c1ccccc1)N3` [q, (8S)-2,3-Dimethyl-8-phenyl-6,7,8,9-tetrahydro-1,3a,9-triaza-cyclopenta[a]naphthalene-5-carboxylic Acid Amide], the “Inhibition of acid secretion (%)” value was >50%.
